Experimental data as given in ChEMBL document CHEMBL1201862, “PubChem BioAssay data set” (2004).
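96-well plates; 48 h exposure; 5 concentrations. Endpoints by linear interpolation between flanking doses. Not reached: highest tested concentration assigned. GI50 = concentration required for 50% inhibition of growth.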 The source made the active and inactive calls. Cut-off read from the data, not from the text of the source: active = GI50 up to about 1.1 µM and inactive = higher.

Columns and labels:
Experiment in all cases: inhibition of tumour cell growth, NCI panel, 48 h
786-0 = system: 786-0
DU-145 = system: DU-145
EKVX = system: EKVX
HCC 2998 = system: HCC 2998
HL-60 = system: HL-60
HOP-92 = system: HOP-92
HT-29 = system: HT-29
IGROV-1 = system: IGROV-1
M14 = system: M14
NCI-H460 = system: NCI-H460
NCI/ADR-RES = system: NCI/ADR-RES
RXF 393 = system: RXF 393
SK-MEL-2 = system: SK-MEL-2
T47D = system: T47D
UO-31 = system: UO-31
K562 = system: K562
MOLT-4 = system: MOLT-4
NCI-H522 = system: NCI-H522
RPMI-8226 = system: RPMI-8226

| SMILES | GI50 (786-0) | GI50 (DU-145) | GI50 (EKVX) | GI50 (HCC 2998) | GI50 (HL-60) | GI50 (HOP-92) | GI50 (HT-29) | GI50 (IGROV-1) | GI50 (M14) | GI50 (NCI-H460) | GI50 (NCI/ADR-RES) | GI50 (RXF 393) | GI50 (SK-MEL-2) | GI50 (T47D) | GI50 (UO-31) | GI50 (K562) | GI50 (MOLT-4) | GI50 (NCI-H522) | GI50 (RPMI-8226) |
| --- | --- | --- | --- | --- | --- | --- | --- | --- | --- | --- | --- | --- | --- | --- | --- | --- | --- | --- | --- |
| Cc1ccc2c(c1)[nH]c(=S)n2C=C(C(N)=O)C(N)=O | > 100 µM (inactive) | > 100 µM (inactive) | 33.3 µM (inactive) | > 100 µM (inactive) | 5.66 µM (inactive) | > 100 µM (inactive) | > 100 µM (inactive) | > 100 µM (inactive) | > 100 µM (inactive) | > 100 µM (inactive) | > 100 µM (inactive) | > 100 µM (inactive) | > 100 µM (inactive) | > 100 µM (inactive) | > 100 µM (inactive) | – | – | – | – |
| O=C1C(O)=C(C(C2=C(O)C(=O)c3ccccc3C2=O)c2ccc(Cl)cc2)C(=O)c2ccccc21 | 3.33 µM (inactive) | 5.42 µM (inactive) | 13.6 µM (inactive) | – | 1.66 µM (inactive) | 14.3 µM (inactive) | 7.87 µM (inactive) | 8.2 µM (inactive) | 9.59 µM (inactive) | 14 µM (inactive) | 11.6 µM (inactive) | 7.13 µM (inactive) | 8.36 µM (inactive) | 21 µM (inactive) | 10.1 µM (inactive) | 15.2 µM (inactive) | 4.56 µM (inactive) | 8.95 µM (inactive) | 9.86 µM (inactive) |
| COC(=O)NNC(c1ccc(Cl)cc1)c1ccc(Cl)cc1 | 17.1 µM (inactive) | 31 µM (inactive) | 18.8 µM (inactive) | 13.5 µM (inactive) | 21 µM (inactive) | – | 16.5 µM (inactive) | 16.4 µM (inactive) | 15.7 µM (inactive) | 16.5 µM (inactive) | 18.2 µM (inactive) | 10.5 µM (inactive) | 12.4 µM (inactive) | 19.9 µM (inactive) | 12.5 µM (inactive) | 22.2 µM (inactive) | 16.5 µM (inactive) | 19.6 µM (inactive) | 20.9 µM (inactive) |
| C[C@H](c1ccccc1)n1c(N)c(-c2nc3ccccc3s2)c2ccc([N+](=O)[O-])cc2c1=O | 9.29 µM (inactive) | 2.31 µM (inactive) | 25.1 µM (inactive) | 4.4 µM (inactive) | 0.327 µM (active) | 1.59 µM (inactive) | 5.37 µM (inactive) | 8.13 µM (inactive) | 14.8 µM (inactive) | 4.09 µM (inactive) | 2.84 µM (inactive) | – | 2.94 µM (inactive) | 1.58 µM (inactive) | 3.83 µM (inactive) | 1.23 µM (inactive) | 2.32 µM (inactive) | 1.32 µM (inactive) | 0.324 µM (active) |
| CCCCCCCCCCCCCCCCCCNc1ccn(C2OC(CO)C(OP(=O)(O)OCC3CCC(n4ccc(N)nc4=O)O3)C2O)c(=O)n1 (stereo not given) | > 100 µM (inactive) | > 100 µM (inactive) | > 100 µM (inactive) | – | 17.1 µM (inactive) | > 100 µM (inactive) | 42.5 µM (inactive) | 27.2 µM (inactive) | 42.3 µM (inactive) | 55.8 µM (inactive) | > 100 µM (inactive) | 15.6 µM (inactive) | > 100 µM (inactive) | 83.4 µM (inactive) | 22.2 µM (inactive) | – | 3.9 µM (inactive) | 28.6 µM (inactive) | – |
| O=[N+]([O-])/C(C(Cl)=C(Cl)Cl)=C1\NCCO1 | > 100 µM (inactive) | > 100 µM (inactive) | > 100 µM (inactive) | > 100 µM (inactive) | 81.5 µM (inactive) | – | > 100 µM (inactive) | > 100 µM (inactive) | > 100 µM (inactive) | > 100 µM (inactive) | > 100 µM (inactive) | 90.4 µM (inactive) | > 100 µM (inactive) | 59.4 µM (inactive) | > 100 µM (inactive) | > 100 µM (inactive) | 69.5 µM (inactive) | > 100 µM (inactive) | > 100 µM (inactive) |
| O=C1CC(NC(=O)C(F)(F)F)c2c(Br)sc(N3CCNCC3)c21 (stereo not given) | > 100 µM (inactive) | > 100 µM (inactive) | > 100 µM (inactive) | > 100 µM (inactive) | > 100 µM (inactive) | 53 µM (inactive) | 85.7 µM (inactive) | > 100 µM (inactive) | > 100 µM (inactive) | > 100 µM (inactive) | > 100 µM (inactive) | > 100 µM (inactive) | 13.2 µM (inactive) | > 100 µM (inactive) | 61.4 µM (inactive) | > 100 µM (inactive) | > 100 µM (inactive) | > 100 µM (inactive) | – |
| COc1cccc(/N=N/C(=NNC(=O)c2ccc(C)cc2)c2ccc(N(C)C)cc2)c1 | > 100 µM (inactive) | > 100 µM (inactive) | > 100 µM (inactive) | > 100 µM (inactive) | > 100 µM (inactive) | > 100 µM (inactive) | > 100 µM (inactive) | > 100 µM (inactive) | > 100 µM (inactive) | > 100 µM (inactive) | > 100 µM (inactive) | – | > 100 µM (inactive) | 0.832 µM (active) | > 100 µM (inactive) | 44 µM (inactive) | > 100 µM (inactive) | > 100 µM (inactive) | > 100 µM (inactive) |
| CNC(=O)OCCN1c2ccccc2Sc2ccccc21 | > 100 µM (inactive) | > 100 µM (inactive) | 17.1 µM (inactive) | > 100 µM (inactive) | > 100 µM (inactive) | 50.4 µM (inactive) | > 100 µM (inactive) | 42.1 µM (inactive) | > 100 µM (inactive) | 86.7 µM (inactive) | > 100 µM (inactive) | 19.2 µM (inactive) | – | > 100 µM (inactive) | 69.2 µM (inactive) | > 100 µM (inactive) | > 100 µM (inactive) | > 100 µM (inactive) | – |
| O=P1(O)c2ccccc2CSCc2ccccc21 | > 100 µM (inactive) | > 100 µM (inactive) | > 100 µM (inactive) | > 100 µM (inactive) | > 100 µM (inactive) | > 100 µM (inactive) | > 100 µM (inactive) | > 100 µM (inactive) | > 100 µM (inactive) | > 100 µM (inactive) | > 100 µM (inactive) | > 100 µM (inactive) | > 100 µM (inactive) | > 100 µM (inactive) | > 100 µM (inactive) | > 100 µM (inactive) | > 100 µM (inactive) | > 100 µM (inactive) | – |
| COc1cc(O)c(C(=O)/C=C/c2ccc(O)cc2)cc1Oc1ccc(/C=C/C(=O)c2ccc(O)cc2O)cc1 [RHUSCHALCONE III] | 8.73 µM (inactive) | 10.2 µM (inactive) | 13 µM (inactive) | – | 10.4 µM (inactive) | 11.4 µM (inactive) | 7.57 µM (inactive) | 7.66 µM (inactive) | 9.62 µM (inactive) | 11.6 µM (inactive) | 10.1 µM (inactive) | 8.2 µM (inactive) | 10.1 µM (inactive) | 15.3 µM (inactive) | 9.48 µM (inactive) | 9.75 µM (inactive) | 11.3 µM (inactive) | 7.41 µM (inactive) | 6.79 µM (inactive) |
| C/C=C/C(C/C=C(\C)CO[Si](C)(C)C(C)(C)C)O[Si](C)(C)C(C)(C)C (stereo not given) | > 100 µM (inactive) | > 100 µM (inactive) | > 100 µM (inactive) | > 100 µM (inactive) | > 100 µM (inactive) | – | > 100 µM (inactive) | > 100 µM (inactive) | > 100 µM (inactive) | > 100 µM (inactive) | > 100 µM (inactive) | > 100 µM (inactive) | > 100 µM (inactive) | > 100 µM (inactive) | > 100 µM (inactive) | > 100 µM (inactive) | > 100 µM (inactive) | > 100 µM (inactive) | > 100 µM (inactive) |
| COc1cc2cc(C(=O)N3CC(CCl)c4c3cc(NC(=O)C(C)Nc3c([N+](=O)[O-])cc(C(=O)NCCN(C)C)cc3[N+](=O)[O-])c3ccccc43)[nH]c2c(OC)c1OC (stereo not given) | 0.0204 µM (active) | < 0.0182 µM (active) | 0.229 µM (active) | 0.0315 µM (active) | – | 0.0285 µM (active) | 0.055 µM (active) | 0.12 µM (active) | 0.187 µM (active) | 0.0157 µM (active) | 0.441 µM (active) | – | 0.0675 µM (active) | 0.046 µM (active) | 0.451 µM (active) | 0.0363 µM (active) | 0.0244 µM (active) | 0.0172 µM (active) | – |
| COC(=O)C1CCC(=O)N1C(c1cc(OC)c(OC)c(OC)c1)c1cccc2ccccc12 (stereo not given) | > 100 µM (inactive) | > 100 µM (inactive) | > 100 µM (inactive) | – | 11.7 µM (inactive) | 38.2 µM (inactive) | 35.6 µM (inactive) | > 100 µM (inactive) | > 100 µM (inactive) | > 100 µM (inactive) | 39 µM (inactive) | – | > 100 µM (inactive) | > 100 µM (inactive) | 61.2 µM (inactive) | 75.9 µM (inactive) | 13.8 µM (inactive) | 51.5 µM (inactive) | 76.6 µM (inactive) |
| CS/C(=N/S(=O)(=O)c1ccc(Cl)cc1)NCCCN/C(=N\S(=O)(=O)c1ccc(Cl)cc1)SC | 25.2 µM (inactive) | 23.6 µM (inactive) | 12.7 µM (inactive) | 22.5 µM (inactive) | 8.38 µM (inactive) | 1.81 µM (inactive) | 22.8 µM (inactive) | 30.4 µM (inactive) | 15.4 µM (inactive) | 10.2 µM (inactive) | 12.9 µM (inactive) | – | 14.2 µM (inactive) | 7.35 µM (inactive) | 13 µM (inactive) | 6.11 µM (inactive) | 4.8 µM (inactive) | – | 13.7 µM (inactive) |
